Results from article PMC7026882, “Macrofilaricidal Benzimidazole–Benzoxaborole Hybrids as an Approach to the Treatment of River Blindness: Part 2. Ketone Linked Analogs” (ACS Infectious Diseases, 2019).
Where two headings read alike, the source gives them in different places.

Assays:
[1] = system: mammalian tubulin (G2/M arrest); experiment: G2/M arrest assay, indicative of interaction with mammalian tubulin; type: cell-based
Excerpt: (§1) As summarized in Table 1, we were encouraged to find that the initial ketone analogs prepared, namely, 15 (6-linked) and 20 (5-linked), were quite active in an O. volvulus molting assay we used as a primary indicator of antiparasitic activity[30],[31] and were only weakly active in a G2/M arrest,[32] indicative of the interaction with mammalian tubulin. As described above, our hypothesis was to reduce Pgp efflux liability through elimination of the hydrogen-bond donor associated with the N–H of the amide linker, as this has been shown in the literature to be a contributor to recognition by Pgp.[33],[34] […] We were disappointed to find that the 5-linked analog 22 was poorly selective and the 6-linked analog 23 was only weakly active.

[2] = system: O. volvulus; experiment: O. volvulus molting assay; type: cell-based; details: Onchocerca volvulus; for IC50: molting assay
Excerpt: as §1, with “active. […]” for “active.”
(§2) in comparison to the number of control larvae that had successfully molted. IC50 values were calculated using GraphPad Prism v6.0 (http://www.graphpad.com). See Bullman et al., PLoS
(§3) Negl. Trop. Dis., 2015, 9, e3534 for further details.
(§4) Adult Brugia malayi in vivo model procedure.
(§5) Gerbils (Meriones unguiculatus) were infected by transplantation of 10 male and 10 female adult Brugia malayi into the peritoneal cavity. Gerbils were acclimated for 7 days prior to treatment. Animals were dosed based on their body weight prior to each dosing. Animals were administered their doses at the same time each day and receive standard rodent laboratory diet and water ad libitum. Gerbils were humanely euthanized at the conclusion of each study.
(§6) Peritoneal counts of male and female adult B. malayi and visual condition of the peritoneum […]
(§7) L3 Brugia pahangi in vivo model procedure.
(§8) Male gerbils (Meriones unguiculatus) approximately 6 weeks of age (50-60 g) were purchased from Charles Rivers (USA, Kingston K62 Gerbils) and infected by intraperitoneal injection with 200 Brugia pahangi third-stage larvae (L3) per animal (Filariatech, Inc., Athens, GA). Gerbils were housed with no more than 5 animals per cage and maintained 9 months prior to treatment. All gerbils were dosed in accordance with their body weight determined prior to each dosing. Animals were administered their doses at the same time each day and are allowed to feed and drink ad libitum. Gerbils were euthanized following approved institutional protocols. Euthanized animals were weighed and examined for external and visceral pathologies. The adult Brugia worms were recovered by opening the body cavity and washing the peritoneal cavity with 100 mL of phosphate buffered saline. Male and female worms were counted using a dissecting microscope.
(§9) Litomosoides sigmodontis in vivo model procedure. 2
(§10) All animal experiments with L. sigmodontis were conducted at the Institute for Medical Microbiology, Immunology and Parasitology (IMMIP), University Hospital of Bonn, in accordance to the European Union animal welfare guidelines. All protocols were approved by the local authorities (Landesamt für Natur, Umwelt und Verbraucherschutz, Cologne, Germany (AZ 84- […]
(§11) Janvier (Saint-Berthevin, France) and were housed at the animal facility of the IMMIP in individually ventilated cages on a 12h light/dark cycle with food and water ad libidum. Mice were infected at 6-8 weeks of age via exposure to the natural mite vector Ornithonyssus bacoti

[3] = system: P-gp (MDR1); experiment: MDCK-MDR1 cell monolayer permeability assay; type: in vitro ADME; details: dog
Excerpt: as §1

[4] = Metabolic stability (Clint) in gerbil microsomes; type: in vitro ADME
Excerpt: as §1

[5] = Metabolic stability (Clint) in human microsomes; type: in vitro ADME
Excerpt: as §1

[6] = Pharmacokinetics in Mongolian gerbils; type: in vivo; details: blood, Mongolian gerbils; for AUC(0-t): read-out: AUC0–24; for Cmax: read-out: Cmax; for bioavailability: po, read-out: bioavailability (%F)
Excerpt: In addition, the concentrations achieved at these doses were well in excess of the O. volvulus IC50, a requirement for in vivo activity that we had hypothesized on the basis of earlier work in the amide-linked series.

[7] = system: Brugia pahangi; experiment: In vivo efficacy in the L3 Brugia pahangi gerbil model
Experimental: For our in vivo model, gerbils were infected by injecting B. pahangi third-stage larvae (L3) that were subsequently allowed to develop to adult worms over several months. Once stable infections had been established, 21 was administered as a suspension via once-daily oral gavage at a dose of 100 mg/kg for 7, 14, or 28 days. All animals were maintained until day 63 after the start of dosing, at which time adult worms were recovered from the peritoneal cavity and microfilariae were quantified in blood samples. Flubendazole (5 mg/kg, SC × 5 days) was included as a positive control in this study. […]
as §2, §3, §4, §5, §6, §7, §8, §9, §10, §11

[8] = system: LF (lymphatic filariasis); design: method as in PMID 30650084; details: by route of administration; cited from earlier work
[9] = system: P-glycoprotein transporter (Pgp); design: method as in PMID 30650084; details: limits oral bioavailability; cited from earlier work
[10] = SC, 10 mg/kg, 5 days, QD, positive control

IC50 [1] [nM]	IC50 [2] [nM]	Papp A→B [3] [×10⁻⁶ cm/s]	microsomal CLint [4] [µL/min/mg]	microsomal CLint [5] [µL/min/mg]	Structure (SMILES)	further results
12200	110	34.3	< 4	< 4	COC(=O)Nc1nc2cc(C(=O)c3cccc4c3B(O)O[C@H]4C)ccc2[nH]1 (single isomer, unassigned) [compound 30]	AUC(0-t) ([6]; 2 mg/kg, dose 2, IV): 14600 ng·h/mL; Cmax ([6]; 2 mg/kg, dose 2, IV): 7580 ng/mL; AUC(0-t) ([6]; 10 mg/kg, dose 10, PO): 141000 ng·h/mL; Cmax ([6]; 10 mg/kg, dose 10, PO): 14000 ng/mL; bioavailability ([6]; 10 mg/kg, dose 10, PO): ~100%
12300	118	6	8.25	–	COC(=O)Nc1nc2cc(C(=O)c3ccc4c(c3)B(O)OC4)ccc2[nH]1 [compound 15]	AUC(0-t) ([6]; 2 mg/kg, dose 2, IV): 880 ng·h/mL; Cmax ([6]; 2 mg/kg, dose 2, IV): 2260 ng/mL; AUC(0-t) ([6]; 10 mg/kg, dose 10, PO): 790 ng·h/mL; Cmax ([6]; 10 mg/kg, dose 10, PO): 270 ng/mL; bioavailability ([6]; 10 mg/kg, dose 10, PO): 18%
> 100000	1590	28.3	–	5.56	COC(=O)Nc1nc2cc(C(=O)c3cccc4c3COB4O)ccc2[nH]1 [compound 19]	–
280	10	26.2	–	–	COC(=O)Nc1nc2cc(C(=O)c3ccc4c(c3)C(C)(C)OB4O)ccc2[nH]1 [compound 22]	–
460	290	16	26.7	7.63	COC(=O)Nc1nc2cc(C(=O)CCc3ccc4c(c3)B(O)OC4(C)C)ccc2[nH]1 [compound 32]	–

The next lines start with the molecule.

Structure (SMILES)	IC50 [1] [nM]	IC50 [2] [nM]	Papp A→B [3] [×10⁻⁶ cm/s]	microsomal CLint [4] [µL/min/mg]	microsomal CLint [5] [µL/min/mg]	further results
COC(=O)Nc1nc2cc(C(=O)c3ccc4c(c3)B(O)O[C@@H]4C)ccc2[nH]1 (single isomer, unassigned) [compound 24]	> 100000	> 1000	–	–	–	inhibition at 1 µM [2]: 2%
COC(=O)Nc1nc2cc(C(=O)c3ccc4c(c3)B(O)O[C@H]4C)ccc2[nH]1 (single isomer, unassigned) [compound 25]	> 100000	40	15.5	< 4	< 4	–
COC(=O)Nc1nc2cc(C(=O)c3cccc4c3B(O)O[C@@H]4C)ccc2[nH]1 (single isomer, unassigned) [compound 29]	5600	100	57.2	< 4	< 4	–
COC(=O)Nc1nc2cc(C(=O)c3ccc(F)cc3)ccc2[nH]1 [compound 3, flubendazole, reference compound]	670	4	–	< 4	–	Papp A→B ([3]; A-B, read-out: MDCK-MDR1 Papp (A-B)): 15.6 ×10⁻⁶ cm/s; Number of Worms Recovered, Avg Female Worms [7, 10]: 0.0; Number of Worms Recovered, Avg Male Worms [7, 10]: 0.0; worms recovered from positive control group ([7]; given SC): no worms recovered
COC(=O)Nc1nc2cc(C(=O)NCc3ccc4c(c3)B(O)OC4(C)C)ccc2[nH]1 [compound 4]	–	–	–	–	–	activity in in vivo models of LF [8]: only active in in vivo models of LF following subcutaneous administration; efflux via P-glycoprotein transporter (Pgp) [9]: subject to efflux
COC(=O)Nc1nc2cc(C(=O)c3ccc4c(c3)COB4O)ccc2[nH]1 [compound 20]	9800	112	11.7	11.7	–	AUC(0-t) ([6]; 2 mg/kg, dose 2, IV): 1160 ng·h/mL; Cmax ([6]; 2 mg/kg, dose 2, IV): 2000 ng/mL; AUC(0-t) ([6]; 10 mg/kg, dose 10, PO): 990 ng·h/mL; Cmax ([6]; 10 mg/kg, dose 10, PO): 480 ng/mL; bioavailability ([6]; 10 mg/kg, dose 10, PO): 17%
COC(=O)Nc1nc2ccc(C(=O)c3ccc4c(c3)B(O)OC4(C)C)cc2[nH]1 [compound 23]	> 100000	> 1000	20.7	–	–	inhibition at 1 µM [2]: 0%
COC(=O)Nc1nc2ccc(C(=O)c3ccc(F)c4c3B(O)OC4)cc2[nH]1 [compound 26]	30300	20	21.7	11.6	11.1	AUC(0-t) ([6]; 2 mg/kg, dose 2, IV): 18600 ng·h/mL; Cmax ([6]; 2 mg/kg, dose 2, IV): 10900 ng/mL; AUC(0-t) ([6]; 10 mg/kg, dose 10, PO): 23500 ng·h/mL; Cmax ([6]; 10 mg/kg, dose 10, PO): 1690 ng/mL; bioavailability ([6]; 10 mg/kg, dose 10, PO): 24%
COC(=O)Nc1nc2ccc(C(=O)c3cc(F)cc4c3B(O)OC4)cc2[nH]1 [compound 27]	22000	270	32	< 4	< 4	–
COC(=O)Nc1nc2ccc(C(=O)c3c(F)ccc4c3B(O)OC4)cc2[nH]1 [compound 28]	> 100000	1310	–	–	–	–
COC(=O)Nc1nc2ccc(C(=O)c3ccc(Cl)c4c3B(O)OC4)cc2[nH]1 [compound 31]	11600	30	28	< 4	< 4	–
COC(=O)Nc1nc2cc(C(=O)CCCc3ccc4c(c3)B(O)OC4(C)C)ccc2[nH]1 [compound 33]	20	–	–	–	–	–
